From US6573262B2, “Composition and antiviral activity of substituted indoleoxoacetic piperazine derivatives” (priority 2000, dated 2003)

Test system: HIV-1 single-round infectious reporter virus
Assay: microbe, parasite or virus in culture
Assay type: cell-based
Details: for EC50: Human immunodeficiency virus 1, HeLa-CD4/CCR5, 72 h, read-out: EC50 Group from Table 1; for inhibition at 10 µM: Human immunodeficiency virus 1, HeLa-CD4/CCR5, read-out: % Inhibition @ 10 uM

## COC(=O)/C=C/c1ccc(F)c2c(C(=O)C(=O)N3CCN(C(=O)c4ccccc4)CC3)c[nH]c12 [Example 217]
  EC50: < 1000 nM

## N#CCCCn1nnc(-c2ccc(F)c3c(C(=O)C(=O)N4CCN(C(=O)c5ccccc5)CC4)c[nH]c23)n1 [Example 115]
  EC50: < 1000 nM

## COC(=O)CNc1nc(-c2ccc(F)c3c(C(=O)C(=O)N4CCN(C(=O)c5ccccc5)CC4)c[nH]c23)no1 [Example 140]
  EC50: < 1000 nM

## CONC(=O)c1ccc(F)c2c(C(=O)C(=O)N3CCN(C(=O)c4ccccc4)CC3)c[nH]c12 [Example 46]
  EC50: < 1000 nM
  inhibition at 10 µM: > 98%

## C[C@@H]1CN(C(=O)c2ccccn2)CCN1C(=O)C(=O)c1c[nH]c2c(-c3noc(C(Cl)(Cl)Cl)n3)ccc(F)c12 [Example 187]
  EC50: < 1000 nM

## O=C(NCc1nc2ccccc2[nH]1)c1ccc(F)c2c(C(=O)C(=O)N3CCN(C(=O)c4ccccc4)CC3)c[nH]c12 [Example 53]
  EC50: < 1000 nM

## O=C(C(=O)N1CCN(C(=O)c2ccccc2)CC1)c1c[nH]c2c(-c3nn[nH]n3)ccc(F)c12 [Example 20]
  EC50: < 1000 nM
  inhibition at 10 µM: > 98%

## NCCNC(=O)c1ccc(F)c2c(C(=O)C(=O)N3CCN(C(=O)c4ccccc4)CC3)c[nH]c12 [Example 154]
  EC50: < 1000 nM

## COc1ccc(-c2ccccn2)c2[nH]cc(C(=O)C(=O)N3CCN(C(=O)c4ccccc4)CC3)c12 [Example 7]
  EC50: < 1000 nM
  inhibition at 10 µM: > 98%

## O=C(C(=O)N1CCN(C(=O)c2ccccn2)CC1)c1c[nH]c2c(-c3nn[nH]n3)ccc(F)c12 [Example 32]
  EC50: < 1000 nM
  inhibition at 10 µM: > 98%

## NC(=O)c1ccc(F)c2c(C(=O)C(=O)N3CCN(C(=O)c4ccccn4)CC3)c[nH]c12 [Example 184]
  EC50: < 1000 nM

## CCCNC(=O)NNC(=O)c1ccc(F)c2c(C(=O)C(=O)N3CCN(C(=O)c4ccccc4)CC3)c[nH]c12 [Example 135]
  EC50: < 1000 nM

## C[C@@H]1CN(C(=O)c2ccccn2)CCN1C(=O)C(=O)c1c[nH]c2c(-c3noc(N)n3)ccc(F)c12 [Example 190]
  EC50: < 1000 nM

## COCCNC(=O)c1ccc(F)c2c(C(=O)C(=O)N3CCN(C(=O)c4ccccc4)CC3)c[nH]c12 [Example 152]
  EC50: < 1000 nM

## O=C(Nc1nc2ccccc2[nH]1)c1ccc(F)c2c(C(=O)C(=O)N3CCN(C(=O)c4ccccc4)CC3)c[nH]c12 [Example 41]
  EC50: < 1000 nM
  inhibition at 10 µM: > 98%

## O=C(C(=O)N1CCN(C(=O)c2ccccc2)CC1)c1c[nH]c2c(-c3ncco3)ccc(F)c12 [Example 73]
  EC50: < 1000 nM
  inhibition at 10 µM: > 98%

## O=C(O)Cn1nnc(-c2ccc(F)c3c(C(=O)C(=O)N4CCN(C(=O)c5ccccc5)CC4)c[nH]c23)n1 [Example 70]
  EC50: < 1000 nM
  inhibition at 10 µM: > 98%

## COC(=O)c1nc(-c2ccc(F)c3c(C(=O)C(=O)N4CCN(C(=O)c5ccccc5)C[C@H]4C)c[nH]c23)no1 [Example 182]
  EC50: < 1000 nM

## O=C(C(=O)N1CCN(C(=O)c2ccccc2F)CC1)c1c[nH]c2c(-c3ncon3)ccc(F)c12 [Example 150C]
  EC50: < 1000 nM

## CC(C)(C)OC(=O)N1C=NNC(c2ccc(F)c3c(C(=O)C(=O)N4CCN(C(=O)c5ccccc5)CC4)c[nH]c23)=N1 [Example 132]
  EC50: < 1000 nM

## Cc1cc(NC(=O)c2ccc(F)c3c(C(=O)C(=O)N4CCN(C(=O)c5ccccc5)CC4)c[nH]c23)on1 [Example 37]
  EC50: < 1000 nM
  inhibition at 10 µM: > 98%

## C[C@@H]1CN(C(=O)c2ccccc2)CCN1C(=O)C(=O)c1c[nH]c2c(C(=O)NCCN3CCOCC3)ccc(F)c12 [Example 177]
  EC50: < 1000 nM

## O=C(C(=O)N1CCN(C(=O)c2ccccc2)CC1)c1c[nH]c2c(-c3nc4ccccc4o3)ccc(F)c12 [Example 18]
  EC50: < 1000 nM
  inhibition at 10 µM: > 98%

## O=C(Nc1ccncc1)c1ccc(F)c2c(C(=O)C(=O)N3CCN(C(=O)c4ccccc4)CC3)c[nH]c12 [Example 39]
  EC50: < 1000 nM
  inhibition at 10 µM: > 98%

## COc1ccc(-c2ccc(F)c3c(C(=O)C(=O)N4CCN(C(=O)c5ccccc5)CC4)c[nH]c23)cc1 [Example 4]
  EC50: < 1000 nM
  inhibition at 10 µM: > 98%

## CC(C)NC(=O)NNC(=O)c1ccc(F)c2c(C(=O)C(=O)N3CCN(C(=O)c4ccccc4)CC3)c[nH]c12 [Example 134]
  EC50: < 1000 nM

## Nc1cccc(C(=O)N2CCN(C(=O)C(=O)c3c[nH]c4c(-c5ncon5)ccc(F)c34)CC2)c1 [Example 151]
  EC50: < 1000 nM

## COc1ccc(-c2ncon2)c2[nH]cc(C(=O)C(=O)N3CCN(C(=O)c4ccccc4)CC3)c12 [Example 126]
  EC50: < 1000 nM

## CCCn1nnc(-c2ccc(F)c3c(C(=O)C(=O)N4CCN(C(=O)c5ccccc5)CC4)c[nH]c23)n1 [Example 24]
  EC50: < 1000 nM
  inhibition at 10 µM: > 98%

## C[C@@H]1CN(C(=O)c2ccccc2)CCN1C(=O)C(=O)C1CNc2c(C(=O)O)cccc21 (stereo partly drawn) [Example 215, 1-benzoyl-3-(R)-methyl-4-[(7-carboxyindolin-3-yl)-2-oxoacetyl]piperazine]
  EC50: < 1000 nM

## C[C@@H]1CN(C(=O)c2ccccc2)CCN1C(=O)C(=O)c1c[nH]c2c(-c3noc(NC4CCC4)n3)ccc(F)c12 [Example 161]
  EC50: < 1000 nM

## O=C(O)CO/N=C/c1ccc(F)c2c(C(=O)C(=O)N3CCN(C(=O)c4ccccc4)CC3)c[nH]c12 [Example 31]
  EC50: < 1000 nM
  inhibition at 10 µM: > 98%

## CCN(CC)CCn1nnc(-c2ccc(F)c3c(C(=O)C(=O)N4CCN(C(=O)c5ccccc5)CC4)c[nH]c23)n1 [Example 114]
  EC50: < 1000 nM

## CC(=O)OCn1nnc(-c2ccc(F)c3c(C(=O)C(=O)N4CCN(C(=O)c5ccccc5)CC4)c[nH]c23)n1 [Example 108]
  EC50: < 1000 nM

## C[C@@H]1CN(C(=O)c2ccccc2)CCN1C(=O)C(=O)c1c[nH]c2c(-c3nnn(C)n3)ccc(F)c12 [Example 175]
  inhibition at 10 µM: > 98%

## O=C(C(=O)N1CCN(C(=O)c2ccccc2)CC1)c1c[nH]c2c(-c3cnco3)ccc(F)c12 [Example 17]
  EC50: < 1000 nM
  inhibition at 10 µM: > 98%

## CNC(=O)c1cc(-c2ccc(F)c3c(C(=O)C(=O)N4CCN(C(=O)c5ccccc5)CC4)c[nH]c23)[nH]n1 [Example 89]
  EC50: < 1000 nM

## O=C(C(=O)N1CCN(C(=O)c2ccccc2)CC1)c1c[nH]c2c(-c3ccc(Cl)s3)ccc(F)c12 [Example 16]
  EC50: < 1000 nM
  inhibition at 10 µM: > 98%

## CCN(CC)C(=O)COC(=O)c1cc(-c2ccc(F)c3c(C(=O)C(=O)N4CCN(C(=O)c5ccccc5)CC4)c[nH]c23)n[nH]1 [Example 120]
  EC50: < 1000 nM

## O=C(NCCc1c[nH]cn1)c1ccc(F)c2c(C(=O)C(=O)N3CCN(C(=O)c4ccccc4)CC3)c[nH]c12 [Example 49]
  EC50: < 1000 nM
  inhibition at 10 µM: > 98%

## O=C(C(=O)N1CCN(C(=O)c2ccccc2)CC1)c1c[nH]c2c(-c3nc4ncccc4[nH]3)ccc(F)c12 [Example 165]
  EC50: < 1000 nM

## O=C(C(=O)N1CCN(C(=O)c2ccccc2)CC1)c1c[nH]c2c(-c3noc(=O)[nH]3)ccc(F)c12 [Example 28]
  EC50: < 1000 nM
  inhibition at 10 µM: > 98%

## COc1ccc(-c2ccc(F)cc2)c2[nH]cc(C(=O)C(=O)N3CCN(C(=O)c4ccccc4)CC3)c12 [Example 3]
  EC50: < 1000 nM
  inhibition at 10 µM: > 98%

## O=C(C(=O)N1CCN(C(=O)c2ccccc2)CC1)c1c[nH]c2c(-c3nccs3)ccc(F)c12 [Example 14]
  EC50: < 1000 nM
  inhibition at 10 µM: > 98%

## O=C(C(=O)N1CCN(C(=O)c2ccccn2)CC1)c1c[nH]c2c(-c3noc(C(Cl)(Cl)Cl)n3)ccc(F)c12 [Example 188]
  EC50: < 1000 nM

## CNC(=O)c1ccc(OC)c2c(C(=O)C(=O)N3CCN(C(=O)c4ccccc4)CC3)c[nH]c12 [Example 125]
  EC50: < 1000 nM

## O=C(NCc1ccccc1)c1ccc(F)c2c(C(=O)C(=O)N3CCN(C(=O)c4ccccc4)CC3)c[nH]c12 [Example 45]
  EC50: < 1000 nM
  inhibition at 10 µM: > 98%

## O=C(C(=O)N1CCN(C(=O)c2ccccc2)CC1)c1c[nH]c2c(-n3ccnc3)ccc(F)c12 [Example 117]
  EC50: < 1000 nM

## O=C(C(=O)N1CCN(C(=O)c2ccccc2)CC1)c1c[nH]c2c(-n3cccn3)ccc(F)c12 [Example 116]
  EC50: < 1000 nM

## O=C(C(=O)N1CCN(C(=O)c2ccccc2)CC1)c1c[nH]c2c(-c3nc4cnccc4[nH]3)ccc(F)c12 [Example 164]
  EC50: < 1000 nM

## CN(C)CCNC(=O)c1ccc(F)c2c(C(=O)C(=O)N3CCN(C(=O)c4ccccc4)CC3)c[nH]c12 [Example 44]
  EC50: < 1000 nM
  inhibition at 10 µM: 97%

## O=C(C(=O)N1CCN(C(=O)c2ccccc2)CC1)c1c[nH]c2c(-c3nnn(Cc4ccccc4)n3)ccc(F)c12 [Example 25]
  EC50: < 1000 nM
  inhibition at 10 µM: > 98%

## O=C(C(=O)N1CCN(C(=O)c2ccccc2)CC1)c1c[nH]c2c(C(=O)N3CCN(C(=O)c4ccccc4)CC3)ccc(F)c12 [Example 69]
  EC50: < 1000 nM
  inhibition at 10 µM: > 98%

## C[C@@H]1CN(C(=O)c2ccccc2)CCN1C(=O)C(=O)c1c[nH]c2c(-c3ncon3)ccc(F)c12 [Example 181]
  EC50: < 1000 nM

## NC(=O)Cn1nnc(-c2ccc(F)c3c(C(=O)C(=O)N4CCN(C(=O)c5ccccc5)CC4)c[nH]c23)n1 [Example 104]
  EC50: < 1000 nM

## O=C(NS(=O)(=O)c1ccccc1)c1ccc(F)c2c(C(=O)C(=O)N3CCN(C(=O)c4ccccc4)CC3)c[nH]c12 [Example 40]
  EC50: < 1000 nM
  inhibition at 10 µM: > 98%

## CC(C)(C)OC(=O)NNC(=O)c1ccc(F)c2c(C(=O)C(=O)N3CCN(C(=O)c4ccccc4)CC3)c[nH]c12 [Example 91]
  EC50: < 1000 nM

## C[C@@H]1CN(C(=O)c2ccccc2)CCN1C(=O)C(=O)c1c[nH]c2c(-c3noc(N)n3)ccc(F)c12 [Example 155]
  EC50: < 1000 nM

## O=C(NCc1ccco1)c1ccc(F)c2c(C(=O)C(=O)N3CCN(C(=O)c4ccccc4)CC3)c[nH]c12 [Example 50]
  EC50: < 1000 nM
  inhibition at 10 µM: > 98%

## C[C@@H]1CN(C(=O)c2ccccc2)CCN1C(=O)C(=O)c1c[nH]c2c(-c3nn[nH]n3)ccc(F)c12 [Example 33]
  EC50: < 1000 nM
  inhibition at 10 µM: > 98%

## C=CCn1nnc(-c2ccc(F)c3c(C(=O)C(=O)N4CCN(C(=O)c5ccccc5)CC4)c[nH]c23)n1 [Example 26]
  EC50: < 1000 nM
  inhibition at 10 µM: > 98%
